Data published in patent US20110294810A1, “SUBSTITUTED (PYRIDYL)-AZINYLAMINE DERIVATIVES AS PLANT PROTECTION AGENTS” (priority 2008, published 2011).

Test system: not listed separately
Test: Measurement of logP values by HPLC on reversed phase columns (EEC directive 79/831 Annex V.A8)
Format: physicochemical
Details: HPLC on reversed phase columns; usually LC-MS at pH 2.7 with 0.1% formic acid in water and acetonitrile, linear gradient 10% to 95% acetonitrile

| Compound | log p |
| --- | --- |
| CCOC(=O)C1CCCN(Cc2cc(-c3ccnc(Nc4cccc(Cl)c4)n3)ccn2)C1 (centres unmarked) [Example A57] | 1.98 |
| CN1CCC(N(C)Cc2cc(-c3ccnc(Nc4cccc(Cl)c4)n3)ccn2)CC1 [Compound A63] | 1.07 |
| CCC(C)N(C)Cc1cc(-c2ccnc(Nc3cccc(Cl)c3)n2)ccn1 (centres unmarked) [Compound A61] | 1.88 |

Same assay, conditions: pH 2.7

| Compound | log p |
| --- | --- |
| CC(=O)NCc1cc(-c2ccnc(Nc3cccc(Cl)c3)n2)ccn1 [Compound A4] | 2.03 |
| C=C(C)C(=O)OCc1cc(-c2ccnc(Nc3cccc(Cl)c3)n2)ccn1 [Compound A87] | 3.78 |
| C#CCCCC(=O)OCc1cc(-c2ccnc(Nc3cccc(Cl)c3)n2)ccn1 [Compound A33] | 3.73 |
| CCSCCN(C=O)Cc1cc(-c2ccnc(Nc3cccc(Cl)c3)n2)ccn1 [Compound A96] | 3.17 |
| CCN(C)Cc1cc(-c2ccnc(Nc3cccc(Cl)c3)n2)ccn1 [Compound A52] | 1.66 |
| CN(Cc1cc(-c2ccnc(Nc3cccc(Cl)c3)n2)ccn1)C(C)(C)C [Example A43] | 1.84 |
| CCSCCNCc1cc(-c2ccnc(Nc3cccc(Cl)c3)n2)ccn1 [Example A66] | 2.1 |
| COCC(=O)NC(C)c1cc(-c2ccnc(Nc3cccc(Cl)c3)n2)ccn1 (centres unmarked) [Compound A80] | 2.68 |
| CCCCC(=O)OCc1cc(-c2ccnc(N(C(=O)CCCC)c3cccc(Cl)c3)n2)ccn1 [Example A29] | 4.65 |
| CN1CCN(Cc2cc(-c3ccnc(Nc4cccc(Cl)c4)n3)ccn2)CC1 [Example A54] | 1.45 |
| CC(C)CC(=O)OCc1cc(-c2ccnc(N(C(=O)CC(C)C)c3cccc(Cl)c3)n2)ccn1 [Example A27] | 4.56 |
| COCC(=O)NC(C)c1cc(-c2ccnc(N(C(=O)COC)c3cccc(Cl)c3)n2)ccn1 (centres unmarked) [Compound A81] | 2.11 |
| CCCSCc1cc(-c2ccnc(Nc3cccc(Cl)c3)n2)ccn1 [Compound A70] | 3.48 |
| CCCCCC(=O)OCc1cc(-c2ccnc(Nc3cccc(Cl)c3)n2)ccn1 [Compound A19] | 4.73 |
| CC(C)=CC(=O)OCc1cc(-c2ccnc(Nc3cccc(Cl)c3)n2)ccn1 [Compound A89] | 4.01 |
| N#CCCCCSCc1cc(-c2ccnc(Nc3cccc(Cl)c3)n2)ccn1 [Compound A76] | 3.35 |
| CC(C)C(=O)OCc1cc(-c2ccnc(N(C(=O)C(C)C)c3cccc(Cl)c3)n2)ccn1 [Example A32] | 3.83 |
| CC(C)(C)OC(=O)NCc1cc(-c2ncnc(Nc3cccc(Cl)c3)n2)ccn1 [Compound C1] | 3.1 |
| FC(F)(F)CSCc1cc(-c2ccnc(Nc3cccc(Cl)c3)n2)ccn1 [Example A79] | 4.01 |
| CCCCSCc1cc(-c2ccnc(Nc3cccc(Cl)c3)n2)ccn1 [Compound A71] | 4.56 |
| CC(C)=CC(=O)NCc1cc(-c2ccnc(Nc3cccc(Cl)c3)n2)ccn1 [Compound A10] | 2.75 |

Same assay, conditions: reversed phase HPLC column; HPLC on reversed phase columns; usual method: LC-MS at pH 2.7, 0.1% formic acid in water / acetonitrile, linear gradient 10% to 95% acetonitrile; read-out: logP

| Compound | chromatographic logP |
| --- | --- |
| CCC(C)CNC(C)c1cc(-c2ccnc(Nc3cccc(Cl)c3)n2)ccn1 (centres unmarked) [Compound A97, N-(3-chlorophenyl)-4-(2-{1-[(2-methylbutyl)amino]ethyl}pyridin-4-yl)pyrimidin-2-amine] | 2.13 |

Same assay, conditions: reversed phase HPLC column; HPLC on reversed phase columns; usually LC-MS at pH 2.7 with 0.1% formic acid in water and acetonitrile, linear gradient 10% to 95% acetonitrile; read-out: log p

| Compound | chromatographic logP |
| --- | --- |
| OCc1cc(-c2ccnc(Nc3cccc(Cl)c3)n2)ccn1 [Compound A14, (4-{2-[(3-chlorophenyl)amino]pyrimidin-4-yl}pyridin-2-yl)methanol] | 1.91 |
| Clc1cccc(Nc2nccc(-c3ccnc(CN4CCCCC4)c3)n2)c1 [Compound A17, N-(3-chlorophenyl)-4-[2-(piperidin-1-ylmethyl)pyridin-4-yl]pyrimidin-2-amine] | 1.81 |
| ClCc1cc(-c2ccnc(Nc3cccc(Cl)c3)n2)ccn1 [Compound A15, 4-[2-(chloromethyl)pyridin-4-yl]-N-(3-chlorophenyl)pyrimidin-2-amine] | 3.46 |

Same assay, conditions: reversed phase HPLC column; LC-MS at pH 2.7, 0.1% formic acid in water / acetonitrile, gradient 10% to 95% acetonitrile; read-out: log p

| Compound | chromatographic logP |
| --- | --- |
| CCOC(=O)NCc1cc(-c2ncnc(Nc3cccc(Cl)c3)n2)ccn1 [Compound C4, ethyl[(4-{4-[(3-chlorophenyl)amino]-1,3,5-triazin-2-yl}pyridin-2-yl)methyl]carbamate] | 2.64 |

Same assay, conditions: reversed phase HPLC column; LC-MS at pH 7.8, 0.001 molar ammonium hydrogen carbonate in water, gradient 10% to 95% acetonitrile; read-out: log p [c]

| Compound | chromatographic logP |
| --- | --- |
| CC(N)c1cc(-c2ncnc(Nc3cccc(Cl)c3)n2)ccn1 (centres unmarked) [Compound C2, 4-[2-(1-aminoethyl)pyridin-4-yl]-N-(3-chlorophenyl)-1,3,5-triazin-2-amine] | 1.81 |

Test system: Peronospora parasitica
Test: In vivo test on Peronospora parasitica (crucifer downy mildew), cabbage plants
Details: 500 ppm, cabbage plants sprayed 24 hours before contamination, grading 5 days after contamination
Description: Cabbage plants (Eminence variety) in starter cups, sown on a 50/50 peat soil-pozzolana substrate and grown at 18-20° C., are treated at the cotyledon stage by spraying with the aqueous suspension described above. Plants, used as controls, are treated with an aqueous solution not containing the active material. After 24 hours, the plants are contaminated by spraying them with an aqueous suspension of Peronospora parasitica spores (50 000 spores per ml). The spores are collected from infected plant. The contaminated cabbage plants are incubated for 5 days at 20° C., under a humid atmosphere. Grading is carried out 5 days after the contamination, in comparison with the control plants. Under these conditions, good (at least 70%) or total protection is observed at a dose of 500 ppm with the following compound: C2

| Compound | protection (good, at least 70%, or total) |
| --- | --- |
| CC(N)c1cc(-c2ncnc(Nc3cccc(Cl)c3)n2)ccn1 (centres unmarked) [Compound C2, 4-[2-(1-aminoethyl)pyridin-4-yl]-N-(3-chlorophenyl)-1,3,5-triazin-2-amine] | at least 70% |

Test system: Puccinia recondita
Test: In vivo test on Puccinia recondita (brown rust), wheat plants
Details: 500 ppm, wheat plants sprayed 24 hours before contamination, grading 10 days after contamination
Description: Wheat plants (Scipion variety) sown on 50/50 peat soil-pozzolana substrate in starter cups and grown at 12° C., are treated at the 1-leaf stage (10 cm tall) by spraying with the aqueous suspension described above. Plants, used as controls, are treated with an aqueous solution not containing the active material. After 24 hours, the plants are contaminated by spraying the leaves with an aqueous suspension of Puccinia recondita spores (100,000 spores per ml). […] The contaminated wheat plants are incubated for 24 hours at 20° C. and at 100% relative humidity, and then for 10 days at 20° C. and at 70% relative humidity. Grading is carried out 10 days after the contamination, in comparison with the control plants. Under these conditions, good (at least 70%) or total protection is observed at a dose of 500 ppm with the following compound: A4

| Compound | protection (good, at least 70%, or total) |
| --- | --- |
| CC(=O)NCc1cc(-c2ccnc(Nc3cccc(Cl)c3)n2)ccn1 [Compound A4] | at least 70% |

Test system: Pyricularia oryzae
Test: not given
Format: in vivo
Details: 250 ppm of active ingredient, rice, protective, evaluated 5 days after inoculation

| Compound | efficacy [%] |
| --- | --- |
| CC(N)c1cc(-c2ncnc(Nc3cccc(Cl)c3)n2)ccn1 (centres unmarked) [Compound C2, 4-[2-(1-aminoethyl)pyridin-4-yl]-N-(3-chlorophenyl)-1,3,5-triazin-2-amine] | ≥ 80 |

Test system: Cochliobolus miyabeanus
Test: Cochliobolus test (rice) / protective
Format: in vivo
Details: 250 ppm of active ingredient, evaluated 4 days after inoculation

| Compound | efficacy [%] |
| --- | --- |
| CC(N)c1cc(-c2ncnc(Nc3cccc(Cl)c3)n2)ccn1 (centres unmarked) [Compound C2, 4-[2-(1-aminoethyl)pyridin-4-yl]-N-(3-chlorophenyl)-1,3,5-triazin-2-amine] | ≥ 80 |

Test system: Phakopsora pachyrhizi
Test: Phakopsora test (soybeans) / protective
Format: in vivo
Details: 500 ppm of active ingredient, evaluated 11 days after inoculation
Description: Solvent: 28.5 parts by weight of acetone Emulsifier: 1.5 parts by weight of polyoxyethylene alkyl phenyl ether
To produce a suitable preparation of active compound, 1 part by weight of active compound is mixed with the stated amounts of solvent and emulsifier, and the concentrate is diluted with water to the desired concentration.
To test for protective activity, young plants are sprayed with the preparation of active compound at the stated rate of application. One day after spraying, the plants are inoculated with an aqueous spore suspension of the causal agent of soybean rust (Phakopsora pachyrhizi). The plants are then placed in a greenhouse at approximately 20° C. and a relative atmospheric humidity of approximately 80%.
The test is evaluated 11 days after the inoculation. 0% means an efficacy which corresponds to that of the control, while an efficacy of 100% means that no disease is observed.

| Compound | efficacy [%] |
| --- | --- |
| OCc1cc(-c2ccnc(Nc3cccc(Cl)c3)n2)ccn1 [Compound A14, (4-{2-[(3-chlorophenyl)amino]pyrimidin-4-yl}pyridin-2-yl)methanol] | ≥ 80 |
